Reference: patent US20180148418A1, “AMIDO-SUBSTITUTED CYCLOHEXANE DERIVATIVES” (Bayer Pharma Aktiengesellschaft, priority 2015, published 2018)

Experiments:
TNKS2 = target: T1, TNKS2 (Homo sapiens, UniProt Q9H2K2); assay: TNKS2 Assay B (auto-parsylation, [3H]-NAD+ SPA); type: biochemical; details: 6 nM TNKS2, auto-parsylation, over night at room temperature
T1 construct: purchased BPS Bioscience, San Diego, USA 80572 (TNKS2 Histone Ribosylation Assay Kit)
T1 sequence (Q9H2K2 1-1166): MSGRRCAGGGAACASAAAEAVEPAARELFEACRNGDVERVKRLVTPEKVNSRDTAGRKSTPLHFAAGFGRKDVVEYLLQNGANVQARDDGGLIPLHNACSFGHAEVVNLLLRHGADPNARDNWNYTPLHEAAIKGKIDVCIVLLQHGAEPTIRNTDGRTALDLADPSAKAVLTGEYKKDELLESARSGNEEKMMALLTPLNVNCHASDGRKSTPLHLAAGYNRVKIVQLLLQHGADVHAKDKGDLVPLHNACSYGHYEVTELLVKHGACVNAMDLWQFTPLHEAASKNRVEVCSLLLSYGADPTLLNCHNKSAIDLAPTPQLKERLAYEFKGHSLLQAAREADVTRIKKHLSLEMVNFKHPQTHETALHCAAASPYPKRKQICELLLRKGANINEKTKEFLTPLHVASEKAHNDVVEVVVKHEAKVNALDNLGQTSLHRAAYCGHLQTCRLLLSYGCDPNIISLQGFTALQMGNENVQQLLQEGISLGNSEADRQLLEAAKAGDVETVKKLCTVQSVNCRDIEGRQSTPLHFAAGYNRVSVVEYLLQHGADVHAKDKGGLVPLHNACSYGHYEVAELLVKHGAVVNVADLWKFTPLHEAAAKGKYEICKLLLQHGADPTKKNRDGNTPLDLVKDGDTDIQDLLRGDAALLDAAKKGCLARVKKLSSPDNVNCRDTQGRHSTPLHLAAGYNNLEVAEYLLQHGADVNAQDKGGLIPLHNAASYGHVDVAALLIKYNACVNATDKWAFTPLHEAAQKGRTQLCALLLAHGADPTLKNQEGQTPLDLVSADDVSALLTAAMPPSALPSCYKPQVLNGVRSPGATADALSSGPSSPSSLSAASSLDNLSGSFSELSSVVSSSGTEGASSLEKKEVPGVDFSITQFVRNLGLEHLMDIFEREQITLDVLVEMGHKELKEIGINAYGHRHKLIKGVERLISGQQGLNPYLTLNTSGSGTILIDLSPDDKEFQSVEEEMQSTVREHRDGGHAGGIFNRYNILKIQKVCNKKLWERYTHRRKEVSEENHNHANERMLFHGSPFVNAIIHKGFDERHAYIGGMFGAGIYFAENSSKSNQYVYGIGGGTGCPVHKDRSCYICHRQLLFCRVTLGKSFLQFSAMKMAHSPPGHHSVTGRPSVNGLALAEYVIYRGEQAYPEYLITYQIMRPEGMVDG
Description: The potency of selected compounds according to the invention was assessed applying a modified in vitro inhibition assay. Here, the TNKS2 catalyzed NAD^+-dependent ribosylation of the enzyme itself (auto-parsylation) was detected using [^3H]-NAD^+ as substrate and applying the scintillation proximity assay (SPA) method to detect tritium-labeled, parsylated TNKS2. The intensity of the readout signal is proportional to the incorporated [^3H]-NAD^+. Inhibition of TNKS2 leads to a decreased incorporation of [^3H]-NAD^+ and consequently to a lower readout signal intensity. The concentration of a test compound which inhibits the enzyme activity by 50% (corresponds to half of the normed readout signal intensity) is reported as IC50.
Protocol Auto-Parsylation Assay
The assay was conducted in a 96 well MTP format with the identical TNKS2 enzyme sample and NAD^+ sample as in the histone ribosylation assay with the following modifications: TNKS2 enzyme sample was diluted with a modified assay buffer (50 mM MES pH 7.0, 1 mM DTT, 0.01% Triton X-100) to a final concentration of 6 nM TNKS2 and 10×NAD^+ solution was diluted with the modified assay buffer (s. above) to a final 0.445×NAD^+ solution doped with 100 Bq/μl [^3H]-NAD^+[Catalog #NET443H050UC, Perkin Elmer, Waltham, Mass., USA]. Substrate solution (10 μl) was incubated with different test compound concentrations (2.5 μl in 10% DMSO in modified assay buffer) or control (2.5 μl 10% DMSO in modified assay buffer only) and enzyme (10 μl) over night at room temperature. Incorporated tritium was measured after addition of 50 ul SPA beads (1 mg/ml) [Catalog #RPNQ0095 20 mg/ml, Perkin Elmer, Waltham, Mass., USA; diluted 1:10 with Dulbecco's phosphate buffered saline, PBS Catalog #D8537, Sigma-Aldrich, Steinheim, Germany] and detection of the photon emission with a beta count plate reader [Wallac MicroBeta®, Perkin Elmer, Waltham, Mass., USA].

[1] = system: wildtype Wnt signaling cascade; assay: HEK293 TOP assay (Super TopFlash luciferase reporter, Wnt-3a stimulated); type: cell-based; details: HEK293 TOP reporter cells, Wnt3a at EC50, 16 hours
Description: 7.1 Measurement of the Inhibitory Activity of Selected Compounds on the Wildtype Wnt Signaling Cascade: HEK293 TOP/FOP Assay
In order to discover and characterize small molecules which inhibit the wildtype Wnt pathway, a cellular reporter assay was employed. The corresponding assay cell was generated by transfection of the mammalian cell line HEK293 (ATCC, #CRL-1573) with the Super TopFlash vector (Morin, Science 275, 1997, 1787-1790; Molenaar et al., Cell 86 (3), 1996, 391-399). The HEK293 cell line is cultivated at 37° C. and 5% CO2 in DMEM (Life Technologies, #41965-039), supplemented with 2 mM glutamine, 20 mM HEPES, 1.4 mM pyruvate, 0.15% Na-bicarbonate and 10% foetal bovine serum (GIBCO, #10270). Stable transfectants were generated by selection with 300 μg/ml Hygromycin.
(§1) In preparation of the assay, the two cell lines were plated 24 h before beginning the test at 10000 cells per well in a 384 micro titre plate (MTP) in 30 μl growth medium. […] The recombinant human Wnt-3a was thereby applied between 2500 and 5 ng/ml in two-fold dilution steps.
(§2) Selective inhibitory activity for small molecules on the wildtype Wnt pathway was determined after parallel incubation of both (TOP and FOP) HEK293 reporter cell lines with a compound dilution series from 50 μM to 15 nM in steps of 3.16-fold dilutions in CAFTY buffer (130 mM sodium chloride, 5 mM potassium chloride, 20 mM HEPES, 1 mM magnesium chloride, 5 mM sodium bicarbonate, pH 7.4) containing 2 mM Ca^2+ and 0.01% BSA.
(§3) The compounds were thereby serially prediluted in 100% DMSO and thereafter 50 fold into the CAFTY compound dilution buffer (described above).

[2] = system: HEK293 cells cotransfected with the FOP control vector; assay: HEK293 FOP assay (control reporter with non-functional TCF elements); type: cell-based; details: 16 hours
Description: In a parallel approach, HEK293 cells were cotransfected with the FOP control vector and pcDNA3. The FOP vector is identical to the TOP construct, but it contains instead of functional TCF elements a randomized, non-functional sequence. For this transfection a stable transfected cell line was generated as well, based on selection with Geneticin (1 mg/ml).
as §1, §2, §3

Structure (SMILES)	IC50 (TNKS2)	IC50 ([1]; Homo sapiens, HEK293, 16 h)	IC50 ([2]; Homo sapiens)	IC50 [1]	IC50 [2]
O=C(N[C@H]1CC[C@@]2(CCN(c3cccc(Cl)c3)C2=O)CC1)c1c[nH]c2cccnc12 [Example 275, N-[(trans)-2-(3-chlorophenyl)-1-oxo-2-azaspiro[4.5]dec-8-yl]-1H-pyrrolo[3,2-b]pyridine-3-carboxamide]	300 nM	600 nM	11000 nM	–	–
NC(=O)c1nc[nH]c1C(=O)N[C@H]1CC[C@@]2(CCN(c3ccccc3Cl)C2=O)CC1 [Example 261, N^5-[(trans)-2-(2-chlorophenyl)-1-oxo-2-azaspiro[4.5]dec-8-yl]-1H-imidazole-4,5-dicarboxamide]	17 nM	4.6 nM	≥ 50000 nM	–	–
O=C(N[C@H]1CC[C@@]2(CCN(c3ccc(F)cc3Cl)C2=O)CC1)c1nnc2cccnn12 [Example 347, N-[(trans)-2-(2-chloro-4-fluorophenyl)-1-oxo-2-azaspiro[4.5]dec-8-yl][1,2,4]triazolo[4,3-b]pyridazine-3-carboxamide]	4000 nM	2400 nM	≥ 50000 nM	–	–
CNC(=O)c1[nH]cnc1C(=O)N[C@H]1CC[C@H](C(=O)Nc2ccc(F)cc2Cl)CC1(F)F (stereo in doubt) [Example 34, N^4-{(trans)-4-[(2-chloro-4-fluorophenyl)carbamoyl]-2,2-difluorocyclohexyl}-N^5-methyl-1H-imidazole-4,5-dicarboxamide]	–	210 nM	≥ 50000 nM	–	–
O=C(N[C@H]1CC[C@H](C(=O)Nc2c(F)cc(F)cc2Cl)CC1)c1cnn2cccnc12 [Example 131, N-{trans-4-[(2-chloro-4,6-difluorophenyl)carbamoyl]cyclohexyl}pyrazolo[1,5-a]pyrimidine-3-carboxamide]	–	140 nM	≥ 50000 nM	–	–
CNC(=O)c1[nH]cnc1C(=O)NC1CCC(C(=O)Nc2ccc(F)cc2Cl)CC1C (centres unmarked) [Example 38, N^4-{4-[(2-chloro-4-fluorophenyl)carbamoyl]-2-methylcyclohexyl}-N^5-methyl-1H-imidazole-4,5-dicarboxamide]	–	440 nM	≥ 50000 nM	–	–
CC1CC2(CCC(NC(=O)c3cnn4cccnc34)CC2)C(=O)N1c1ccc(F)cc1Cl (single isomer, unassigned; enantiomer 1) [Example 356, N-[(trans)-2-(2-chloro-4-fluorophenyl)-3-methyl-1-oxo-2-azaspiro[4.5]dec-8-yl]pyrazolo[1,5-a]pyrimidine-3-carboxamide (enantiomer 1)]	–	–	–	26 nM	≥ 50000 nM
CC1CC2(CCC(NC(=O)c3cnn4cccnc34)CC2)C(=O)N1c1ccc(F)cc1Cl (single isomer, unassigned; enantiomer 2) [Example 357, N-[(trans)-2-(2-chloro-4-fluorophenyl)-3-methyl-1-oxo-2-azaspiro[4.5]dec-8-yl]pyrazolo[1,5-a]pyrimidine-3-carboxamide (enantiomer 2)]	–	–	–	5.3 nM	≥ 50000 nM
CNC(=O)c1[nH]cnc1C(=O)NC1CCC(C(=O)Nc2ccc(F)cc2Cl)CC1C (centres unmarked) [Example 40, N^4-{4-[(2-chloro-4-fluorophenyl)carbamoyl]-2-methylcyclohexyl}-N^5-methyl-1H-imidazole-4,5-dicarboxamide]	–	–	–	460 nM	≥ 50000 nM
CNC(=O)c1nc[nH]c1C(=O)N[C@H]1CC[C@H](C(=O)Nc2snc(C)c2Cl)CC1 [Example 175, N^5-{trans-4-[(4-chloro-3-methyl-1,2-thiazol-5-yl)carbamoyl]cyclohexyl}-N^4-methyl-1H-imidazole-4,5-dicarboxamide]	–	1600 nM	1300 nM	–	–

The next lines start with results.

IC50 (TNKS2)	IC50 ([1]; Homo sapiens, HEK293, 16 h)	Structure (SMILES)	IC50 ([2]; Homo sapiens)	IC50 [1]	IC50 [2]
75 nM	50 nM	O=C(NC1CC1)c1nc[nH]c1C(=O)N[C@H]1CC[C@@]2(CCCN(c3ccc(F)cc3Cl)C2=O)CC1 [Example 328, N^5-[(trans)-2-(2-chloro-4-fluorophenyl)-1-oxo-2-azaspiro[5.5]undec-9-yl]-N^4-cyclopropyl-1H-imidazole-4,5-dicarboxamide]	27000 nM	–	–
–	30 nM	CNC(=O)c1[nH]cnc1C(=O)N[C@H]1CC[C@]2(CC1)CC(O)N(c1ccc(F)cc1Cl)C2=O (mixture of isomers) [Example 307, N^4-[(trans)-2-(2-chloro-4-fluorophenyl)-3-hydroxy-1-oxo-2-azaspiro[4.5]dec-8-yl]-N^5-methyl-1H-imidazole-4,5-dicarboxamide (mixture of isomers at C3)]	≥ 50000 nM	–	–
–	170 nM	Cc1cc(O)n2ncc(C(=O)N[C@H]3CC[C@@]4(CCN(c5ccc(F)cc5Cl)C4=O)CC3)c2n1 [Example 364, N-[(trans)-2-(2-chloro-4-fluorophenyl)-1-oxo-2-azaspiro[4.5]dec-8-yl]-7-hydroxy-5-methylpyrazolo[1,5-a]pyrimidine-3-carboxamide]	≥ 50000 nM	–	–
–	57 nM	CN1CCN(c2ccn3ncc(C(=O)N[C@H]4CC[C@@]5(CCN(c6ccc(F)cc6Cl)C5=O)CC4)c3n2)CC1 [Example 229, N-[(trans)-2-(2-chloro-4-fluorophenyl)-1-oxo-2-azaspiro[4.5]dec-8-yl]-5-(4-methylpiperazin-1-yl)pyrazolo[1,5-a]pyrimidine-3-carboxamide]	≥ 50000 nM	–	–
